Assay results as given in US5135746A, “Control of protozoal disease” (Takeda Chemical Industries, Ltd., priority 1989, dated 1992).
Values joined by “and” are separate entries in the source; they are usually repeats but may differ in a detail not shown here. Equal values may be shown once.

Experiments:
[1] = test system: Laboratory Standard Strain Eimeria tenella; assay: Anticoccidial effect in White Leghorn chicks infected with laboratory standard strain Eimeria tenella, drugs in feed for 9 days (Table 1); format: in vivo; design: Caecal Lesion: scale not given here; settings: for OPG: day7; for Caecal Lesion: day-8
Procedure: (§1) The effect of the drugs to coccidiosis was examined using chicks. Namely, nine-day-old White Leghorn male chicks were divided into groups each of which consists of 3 chicks, and 5×10^4 sporulated oocysts per chick of laboratory standard strain Eimeria tenella were orally inoculated into the chicks in all groups except for the control group in which the chicks were not infected and not dosed with the drugs, at 24 hours after the start of dosing. Prescribed amounts of respective plant components dried and crushed and monensin sodium or salinomycin sodium were added to the basal feed (SDL No. 1: Nippon Haigo Shiryo), and continuously administered by the free ingesting method for 9 days from 24 hours before infection to 8 days after infection. The weight of each chick was measured, and the bloody dropping were observed. Further, the chicks were autopsied at day-8 after infection to examine the caecel lesion. Thus, the anticoccidial effect of the administered test drugs was determined.
Note ^1) Weight gain ratio = (Average weight gain for each test
Note ^2) The bloody feces index is indicated by the number of bloody
Note ^3) The caecal lesion is indicated by an average score when
Note ^5) The ND means "not detected".

[2] = Acute toxicity by oral administration to mice; settings: mouse, in vivo
[3] = test system: Field Isolate Eimeria tenella (AMD); assay: Anticoccidial effect in chicks infected with field isolate Eimeria tenella (AMD) resistant against ionophore antibiotics, 30,000 oocysts per chick (Tables 2-4); format: in vivo
[4] = test system: Laboratory Standard Strain Eimeria tenella (AMD); assay: Combined effect of ionophore antibiotics and Rhizophoraceae bark in infected chicks (Table 5); format: in vivo
Procedure: as §1
The combined administration effect of the ionophore antibiotics and Rhizophoraceae bark was examined, by an infection experiment method in accordance with the method in Example 1.

[5] = test system: Field Chicken Coocidia of Mixed Species; assay: Combined effect of monensin and Rhizophoraceae bark in chicks infected with field coccidia of mixed species, 10,000 oocysts per chick (Table 6); format: in vivo, mixed strain containing five or more kinds of coccidia; settings: 80 ppm in feed
Procedure: as §1
Using the mixed strain (large size oocysts: 5%, middle size oocysts: 72%, small size oocysts: 23%) collected in the field and containing five or more kinds of coccidia, the combined administration effect of monensin and Rhizophoraceae bark against chicks infected with 10,000 oocysts per chick was examined, by an infection experiment method in accordance with the method in Example 1. In Table 6, the general intestine lesion value was obtained by converting the sum of values judged by the five steps from 0 to +4 to a value per chick, for the lesion of upper, middle and lower parts of small intestine and caecum, according to the method described in Johnson and Reid, Exp. Parasitol. 28, 30-36 (1970). Other determinations were carried out in the same manner as with Example 1.

In the case of C=CCc1ccc(O)c(-c2cc(CC=C)ccc2O)c1 [Magnolol], the Mortality ([1]; 125 ppm in feed) is reported as 0/3, the “No. of Bloody Droppings” value ([1]; 125 ppm in feed) is reported as 13.3 and the “Weight Gain Ratio” value ([1]; 125 ppm in feed) is reported as 62.5%. For the same molecule, the OPG ([1]; 125 ppm in feed) was 5.3 log, the “Caecal Lesion” value ([1]; 125 ppm in feed) was 4.0 and the Mortality ([1]; 250 ppm in feed) was 0/3. For the same molecule, the “No. of Bloody Droppings” value ([1]; 250 ppm in feed) was 3.7, the “Weight Gain Ratio” value ([1]; 250 ppm in feed) was 89.3% and the OPG ([1]; 250 ppm in feed) was 5.8 log. The “Caecal Lesion” value ([1]; 250 ppm in feed) was 4.0, the Mortality ([1]; 500 ppm in feed) was 0/3 and the “No. of Bloody Droppings” value ([1]; 500 ppm in feed) was 1.3. For the same molecule, the “Weight Gain Ratio” value ([1]; 500 ppm in feed) was 94.5%, the OPG ([1]; 500 ppm in feed) was 3.2 log and the “Caecal Lesion” value ([1]; 500 ppm in feed) was 3.3. The LD50 [2] was 2200 mg/kg.

In the case of CCC1(C2OC(C3OC(O)(CO)C(C)CC3C)CC2C)CCC(C2(C)CCC3(CC(O)C(C)C(C(C)C(OC)C(C)C(=O)O)O3)O2)O1 (stereo not shown) [Monensin, monensin sodium], the Mortality ([1]; 40 ppm in feed) is reported as 1/3, the “No. of Bloody Droppings” value ([1]; 40 ppm in feed) is reported as 13.3 and the “Weight Gain Ratio” value ([1]; 40 ppm in feed) is reported as 36.7%. For the same molecule, the OPG ([1]; 40 ppm in feed) was 4.5 log, the “Caecal Lesion” value ([1]; 40 ppm in feed) was 4.0 and the Mortality ([1]; 60 ppm in feed) was 0/3. The “No. of Bloody Droppings” value ([1]; 60 ppm in feed) was 7.3, the “Weight Gain Ratio” value ([1]; 60 ppm in feed) was 92.9% and the OPG ([1]; 60 ppm in feed) was 4.6 log. For the same molecule, the “Caecal Lesion” value ([1]; 60 ppm in feed) was 4.0, the Mortality ([1]; 80 ppm in feed) was 0/6 and the “No. of Bloody Droppings” value ([1]; 80 ppm in feed) was 1.0. The “Weight Gain Ratio” value ([1]; 80 ppm in feed) was 103.2%, the OPG ([1]; 80 ppm in feed) was 4.3 log and the “Caecal Lesion” value ([1]; 80 ppm in feed) was 2.2. For the same molecule, the Mortality ([1]; 120 ppm in feed) was 0/6, the “No. of Bloody Droppings” value ([1]; 120 ppm in feed) was 0 and the “Weight Gain Ratio” value ([1]; 120 ppm in feed) was 103.2%. The OPG ([1]; 120 ppm in feed) was 3.4 log, the “Caecal Lesion” value ([1]; 120 ppm in feed) was 0 and the “Caecal Lesion” value ([3]; 80 ppm in feed) was 4.0 and 3.8. The Mortality ([3]; 80 ppm in feed) was 0/5, the “No. of Bloody Droppings” value ([3]; 80 ppm in feed) was 10.0 and 9.0 and the OPG ([3]; 80 ppm in feed) was 6.2 log and 6.1 log. The “Weight Gain Ratio” value ([3]; 80 ppm in feed) was 54.8% and 72.3%, the “Caecal Lesion” value ([3]; 100 ppm in feed) was 4.0 and the Mortality ([3]; 100 ppm in feed) was 0/5. The “No. of Bloody Droppings” value ([3]; 100 ppm in feed) was 8.0, the OPG ([3]; 100 ppm in feed) was 6.1 log and the “Weight Gain Ratio” value ([3]; 100 ppm in feed) was 72.6%. For the same molecule, the Mortality ([3]; 160 ppm in feed) was 0/5, the “No. of Bloody Droppings” value ([3]; 160 ppm in feed) was 0 and the OPG ([3]; 160 ppm in feed) was 4.7 log. For the same molecule, the “Weight Gain Ratio” value ([3]; 160 ppm in feed) was 81.5% and 86.5%, the “Caecal Lesion” value ([3]; 240 ppm in feed) was 0 and the Mortality ([3]; 240 ppm in feed) was 0/5. For the same molecule, the “No. of Bloody Droppings” value ([3]; 240 ppm in feed) was 0, the “Weight Gain Ratio” value ([3]; 240 ppm in feed) was 46.5% and the “concentration at which sufficient antiprotozoal activity is shown” value ([3]; in feed) was no less than 160 ppm. The “Caecal Lesion” value ([4]; 80 ppm in feed) was 3.2, the Mortality ([4]; 80 ppm in feed) was 0/9 and the “No. of Bloody Droppings” value ([4]; 80 ppm in feed) was 5.0. For the same molecule, the “Weight Gain Ratio” value ([4]; 80 ppm in feed) was 88%, the Mortality [5] was 1/6 and the “No. of Bloody Droppings” value [5] was 6.0. For the same molecule, the “Weight Gain Ratio” value [5] was 89% and the “Caecal Lesion” value ([5]; general intestine lesion value) was 5.5.

In the case of C=CCc1ccc(O)c(-c2ccc(O)c(CC=C)c2)c1 [Honokiol, honokiol], the Mortality ([1]; 125 ppm in feed) is reported as 1/3, the “No. of Bloody Droppings” value ([1]; 125 ppm in feed) is reported as 13.3 and the “Weight Gain Ratio” value ([1]; 125 ppm in feed) is reported as 41.6%. The OPG ([1]; 125 ppm in feed) was 5.1 log, the “Caecal Lesion” value ([1]; 125 ppm in feed) was 4.0 and the Mortality ([1]; 500 ppm in feed) was 0/3. For the same molecule, the “No. of Bloody Droppings” value ([1]; 500 ppm in feed) was 1.0, the “Weight Gain Ratio” value ([1]; 500 ppm in feed) was 99.4% and the OPG ([1]; 500 ppm in feed) was 4.9 log. For the same molecule, the “Caecal Lesion” value ([1]; 500 ppm in feed) was 3.3.

With CC[C@@H](C(=O)[C@@H](C)[C@@H](O)[C@H](C)[C@@H]1O[C@@H]([C@@H](CC)C(=O)O)CC[C@@H]1C)[C@H]1O[C@]2(C=C[C@@H](O)[C@]3(CC[C@@](C)([C@H]4CC[C@](O)(CC)[C@H](C)O4)O3)O2)[C@H](C)C[C@@H]1C [Salinomycin, salinomycin sodium] the “Caecal Lesion” value ([3]; 50 ppm in feed) was 3.2, the Mortality ([3]; 50 ppm in feed) was 0/5 and the “No. of Bloody Droppings” value ([3]; 50 ppm in feed) was 9.0. The OPG ([3]; 50 ppm in feed) was 5.8 log, the “Weight Gain Ratio” value ([3]; 50 ppm in feed) was 80.3% and the “Caecal Lesion” value ([4]; 50 ppm in feed) was 3.6. For the same molecule, the Mortality ([4]; 50 ppm in feed) was 1/9, the “No. of Bloody Droppings” value ([4]; 50 ppm in feed) was 7.0 and the “Weight Gain Ratio” value ([4]; 50 ppm in feed) was 62%.
